#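 In this assay, cells in 96-well plates receive the compound at five concentrations for 48 hours. Endpoints are linearly interpolated between the surrounding concentrations. Abbreviation: GI50, concentration required for 50% inhibition of growth.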 Calls of active or inactive are those of the source. Cut-off read from the data, not from the text of the source: active = GI50 up to about 1.1 µM and inactive = higher.
# Key:
# Assay in all cases: inhibition of tumour cell growth, NCI panel, 48 h
# A549 = test system: A549
# BT-549 = test system: BT-549
# CAKI-1 = test system: CAKI-1
# DU-145 = test system: DU-145
# HCT-116 = test system: HCT-116
# HCT-15 = test system: HCT-15
# HOP-62 = test system: HOP-62
# IGROV-1 = test system: IGROV-1
# K562 = test system: K562
# LOX IMVI = test system: LOX IMVI
# MCF7 = test system: MCF7
# OVCAR-3 = test system: OVCAR-3
# PC-3 = test system: PC-3
# RXF 393 = test system: RXF 393
# SF-539 = test system: SF-539
# SK-MEL-2 = test system: SK-MEL-2
# TK-10 = test system: TK-10
# U-251 = test system: U-251
# UACC-257 = test system: UACC-257
Compound,GI50 (A549),GI50 (BT-549),GI50 (CAKI-1),GI50 (DU-145),GI50 (HCT-116),GI50 (HCT-15),GI50 (HOP-62),GI50 (IGROV-1),GI50 (K562),GI50 (LOX IMVI),GI50 (MCF7),GI50 (OVCAR-3),GI50 (PC-3),GI50 (RXF 393),GI50 (SF-539),GI50 (SK-MEL-2),GI50 (TK-10),GI50 (U-251),GI50 (UACC-257)
C/C(=C\CSCC(N)C(=O)O)CC/C=C(\C)CNc1ccccc1 (centres undefined),> 100 µM (inactive),64.1 µM (inactive),> 100 µM (inactive),> 100 µM (inactive),> 100 µM (inactive),> 100 µM,> 100 µM (inactive),> 100 µM (inactive),> 100 µM (inactive),> 100 µM (inactive),> 100 µM (inactive),> 100 µM (inactive),> 100 µM (inactive),> 100 µM (inactive),> 100 µM (inactive),> 100 µM (inactive),> 100 µM (inactive),> 100 µM (inactive),> 100 µM (inactive)
c1ccc(C[N+]23CN4CN(CN(C4)C2)C3)cc1,29.2 µM (inactive),48.2 µM (inactive),45.9 µM (inactive),27.5 µM (inactive),27.7 µM (inactive),31.4 µM,69.2 µM (inactive),52.2 µM (inactive),29.7 µM (inactive),22 µM (inactive),30.1 µM (inactive),> 100 µM (inactive),17 µM (inactive),18 µM (inactive),28.6 µM (inactive),17 µM (inactive),84.5 µM (inactive),18.4 µM (inactive),37.4 µM (inactive)
C=CC(C)(O)/C=C/C=C(\C)C(CC1OC1(C)C)OC(=O)/C(C)=C\C (centres undefined),> 100 µM (inactive),> 100 µM (inactive),> 100 µM (inactive),> 100 µM (inactive),> 100 µM (inactive),> 100 µM,> 100 µM (inactive),> 100 µM (inactive),> 100 µM (inactive),> 100 µM (inactive),> 100 µM (inactive),> 100 µM (inactive),> 100 µM (inactive),> 100 µM (inactive),> 100 µM (inactive),> 100 µM (inactive),> 100 µM (inactive),> 100 µM (inactive),> 100 µM (inactive)
CC(C)OC(=O)C1(C(C)C)CCc2ccc(C(=O)CCC(=O)O)cc21 (centres undefined),> 100 µM (inactive),> 100 µM (inactive),> 100 µM (inactive),> 100 µM (inactive),> 100 µM (inactive),> 100 µM,> 100 µM (inactive),> 100 µM (inactive),> 100 µM (inactive),> 100 µM (inactive),> 100 µM (inactive),,> 100 µM (inactive),> 100 µM (inactive),> 100 µM (inactive),> 100 µM (inactive),> 100 µM (inactive),> 100 µM (inactive),> 100 µM (inactive)
Cc1ccc(SC2=C(N(C)C)C(=O)c3ccccc3C2=O)cc1,12.6 µM (inactive),6.43 µM (inactive),1.53 µM (inactive),10.7 µM (inactive),1.1 µM (active),2.45 µM,8.2 µM (inactive),4.95 µM (inactive),0.383 µM (active),3.35 µM (inactive),2.31 µM (inactive),0.661 µM (active),4.11 µM (inactive),6.15 µM (inactive),2.79 µM (inactive),9.73 µM (inactive),7.43 µM (inactive),8.05 µM (inactive),1.91 µM (inactive)
O=c1[nH][nH]c(=S)c(=O)[nH]1,> 100 µM (inactive),> 100 µM (inactive),> 100 µM (inactive),> 100 µM (inactive),> 100 µM (inactive),> 100 µM,> 100 µM (inactive),> 100 µM (inactive),> 100 µM (inactive),> 100 µM (inactive),> 100 µM (inactive),> 100 µM (inactive),> 100 µM (inactive),> 100 µM (inactive),> 100 µM (inactive),> 100 µM (inactive),> 100 µM (inactive),> 100 µM (inactive),> 100 µM (inactive)
CC1=NN(c2cccc(Cl)c2)C2(C1=Cc1cccs1)C(Cl)C(=O)N2c1nc2ccccc2s1 (centres undefined),21.9 µM (inactive),25.2 µM (inactive),23.5 µM (inactive),33.8 µM (inactive),18.4 µM (inactive),20.6 µM,27.6 µM (inactive),28.6 µM (inactive),25.7 µM (inactive),19.6 µM (inactive),23.2 µM (inactive),17.7 µM (inactive),20.9 µM (inactive),21.1 µM (inactive),15.2 µM (inactive),17.9 µM (inactive),28.6 µM (inactive),15.1 µM (inactive),23.2 µM (inactive)
O=C(OCc1ccccc1)N(CCCCN(CCCNCc1ccccc1)C(=O)OCc1ccccc1)CCCNCc1ccccc1,0.782 µM (active),1.62 µM (inactive),1.42 µM (inactive),1.27 µM (inactive),0.249 µM (active),0.352 µM,1.6 µM (inactive),0.883 µM (active),0.208 µM (active),0.22 µM (active),7.76 µM (inactive),1.39 µM (inactive),1.11 µM (active),1.63 µM (inactive),0.243 µM (active),1.36 µM (inactive),1.58 µM (inactive),0.258 µM (active),0.36 µM (active)
CC[C@@]1(O)C(=O)OCc2c1cc1n(c2=O)Cc2c-1nc1ccccc1c2/C=N/NC(=O)c1ccc(N)cc1,0.578 µM (active),0.391 µM (active),0.0589 µM (active),0.0383 µM (active),0.1 µM (active),2.95 µM,0.0333 µM (active),0.279 µM (active),0.075 µM (active),0.0273 µM (active),< 0.016 µM (active),0.714 µM (active),0.177 µM (active),< 0.0322 µM (active),< 0.01 µM (active),5.37 µM (inactive),15.6 µM (inactive),< 0.0141 µM (active),6.44 µM (inactive)
C[C@H]1S[C@H](c2c(Cl)cccc2Cl)N2Cc3ccccc3N=C12,15.2 µM (inactive),28.2 µM (inactive),40.6 µM (inactive),13.1 µM (inactive),4.35 µM (inactive),14.9 µM,14 µM (inactive),12.1 µM (inactive),25.7 µM (inactive),12.9 µM (inactive),14.2 µM (inactive),11.4 µM (inactive),14.5 µM (inactive),14.1 µM (inactive),14.7 µM (inactive),10.1 µM (inactive),17 µM (inactive),23.4 µM (inactive),16.6 µM (inactive)
Nc1cc2c(nnn2C2OC(COCc3ccccc3)C(OCc3ccccc3)C2OCc2ccccc2)c(=O)[nH]1 (centres undefined),13.5 µM (inactive),20 µM (inactive),> 100 µM (inactive),35.9 µM (inactive),10.6 µM (inactive),40.3 µM,37.8 µM (inactive),33.1 µM (inactive),7.41 µM (inactive),14.1 µM (inactive),5.48 µM (inactive),18.7 µM (inactive),6.4 µM (inactive),6.75 µM (inactive),21.6 µM (inactive),10.5 µM (inactive),10 µM (inactive),9.86 µM (inactive),14.9 µM (inactive)
CN(C)/C=N/c1cc(=O)n(C)c(=O)n1C,> 100 µM (inactive),> 100 µM (inactive),> 100 µM (inactive),> 100 µM (inactive),> 100 µM (inactive),> 100 µM,> 100 µM (inactive),> 100 µM (inactive),> 100 µM (inactive),> 100 µM (inactive),> 100 µM (inactive),> 100 µM (inactive),> 100 µM (inactive),> 100 µM (inactive),> 100 µM (inactive),> 100 µM (inactive),> 100 µM (inactive),> 100 µM (inactive),> 100 µM (inactive)
COc1c(/C=C/C(C)(C)O)cc(C2CC(=O)c3c(O)cc(O)cc3O2)cc1CC=C(C)C (centres undefined),9.75 µM (inactive),8.49 µM (inactive),16 µM (inactive),9.06 µM (inactive),9.14 µM (inactive),8.2 µM,,,10.7 µM (inactive),4.44 µM (inactive),8.51 µM (inactive),,8.53 µM (inactive),7.91 µM (inactive),9.4 µM (inactive),8.61 µM (inactive),8.67 µM (inactive),7.71 µM (inactive),8.3 µM (inactive)
COC(=O)C1=C(C)NC(C)=C(C(=O)OC)C1c1nc2sccn2c1[N+](=O)[O-],> 100 µM (inactive),> 100 µM (inactive),> 100 µM (inactive),> 100 µM (inactive),> 100 µM (inactive),> 100 µM,> 100 µM (inactive),,> 100 µM (inactive),> 100 µM (inactive),> 100 µM (inactive),> 100 µM (inactive),> 100 µM (inactive),> 100 µM (inactive),77.3 µM (inactive),> 100 µM (inactive),> 100 µM (inactive),> 100 µM (inactive),> 100 µM (inactive)
CNC(=O)C1OC(n2cnc3c(NCc4cccc(I)c4)nc(Cl)nc32)C(O)C1O (centres undefined),,14.1 µM (inactive),19.3 µM (inactive),19.7 µM (inactive),15.6 µM (inactive),1.06 µM,12.7 µM (inactive),14.1 µM (inactive),12.9 µM (inactive),6.18 µM (inactive),12.8 µM (inactive),13 µM (inactive),11.9 µM (inactive),10.4 µM (inactive),11 µM (inactive),14.7 µM (inactive),16.3 µM (inactive),14.8 µM (inactive),11.4 µM (inactive)

# Source: ChEMBL document CHEMBL1201862, “PubChem BioAssay data set” (2004)
